From patent publication US20230373984A1, “CRYSTALLINE FORM I OF MELANOCORTIN RECEPTOR AGONIST COMPOUND AND PREPARATION METHOD THEREFOR” (LG CHEM, LTD., priority 2020, published 2023)
Entries after “also recorded” stand apart in the source; their conditions may differ.

Key:
[1] = Stability assessment: storage for 4 weeks, HPLC analysis; format: physicochemical; conditions: stored at room temperature
[2] = as above; format: physicochemical; conditions: for Stability assessment (HPLC), Open ACC: open state, accelerated condition (40° C., 75% RH); for Stability assessment (HPLC), Closed STR: sealed state, harsh condition, oven at 80° C.
Experimental: About 10-30 mg of the sample was stored for 4 weeks in an open state under the accelerated condition (40° C., 75% RH) or in a sealed state under the harsh condition in an oven at 80° C.

Stability assessment (HPLC), Closed RT ([1]; Week 2, in % (unit assumed)): 97.99
Stability assessment (HPLC), Closed RT ([1]; Week 4, in % (unit assumed)): 97.74
Stability assessment (HPLC) ([2]; Initial, in % (unit assumed)): 98.72
Stability assessment (HPLC), Open ACC ([2]; Day 3, in % (unit assumed)): 98.22
Stability assessment (HPLC), Open ACC ([2]; Week 1, in % (unit assumed)): 98.45
Stability assessment (HPLC), Open ACC ([2]; Week 2, in % (unit assumed)): 98.40
Stability assessment (HPLC), Open ACC ([2]; Week 4, in % (unit assumed)): 98.32
Stability assessment (HPLC), Closed STR ([2]; Day 3, in % (unit assumed)): 97.35
Stability assessment (HPLC), Closed STR ([2]; Week 1, in % (unit assumed)): 97.28
Stability assessment (HPLC), Closed STR ([2]; Week 2, in % (unit assumed)): 97.82
Stability assessment (HPLC), Closed STR ([2]; Week 4, in % (unit assumed)): 97.30
Compound: CC(C)C(=O)N([C@H]1C[C@@H](C(=O)N2CCOCC2)N(C(=O)[C@@H]2CN(C(C)(C)C)C[C@H]2c2ccc(Cl)cc2)C1)[C@H]1CC[C@@H](C)CC1.Cl [Example 1, N-((3S, 5S)-1-((3S,4R)-1-(Tert-Butyl)-4-(4-Chlorophenyl) Pyrrolidine-3-Carbonyl)-5-(Morpholine-4-Carbonyl) Pyrrolidin-3-yl)-N-((1s,4R)-4-Methylcyclohexyl) Isobutyramide Hydrochloride]
chemical stability (result in words) ([2]; accelerated condition (40° C., 75% RH) and harsh condition (80° C.), 4 weeks, listed as crystalline form I, Hydrochloride): showed chemical stability for 4 weeks; also recorded: exhibited chemical stability for 4 weeks
